These results are taken from PubChem BioAssay (NCI).

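Step 1: Grow cells in 96-well plates. Step 2: Expose to compound for 48 hours at 5 concentrations. Step 3: Interpolate endpoints linearly; if unreached, use highest concentration. Abbreviation: GI50, concentration required for 50% inhibition of growth. TGI: total growth inhibition.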

Among the test systems are ACHN renal; CCRF-CEM leukemia; EKVX NSCLC; HOP-92 NSCLC; LOX IMVI melanoma; M19-MEL melanoma; SK-MEL-2 melanoma; SR leukemia; SW-620 colon; UACC-62 melanoma.
What all share (test): NCI tumour cell line growth inhibition, 48 h

`[Au+].c1c[n-]cn1.c1ccc([PH+](c2ccccc2)c2ccccc2)cc1`: the GI50 with ACHN renal is 6.19 µM; in the assay with CCRF-CEM leukemia, 1.78 µM; in the assay with EKVX NSCLC, 11 µM; in the assay on HOP-92 NSCLC, 2.36 µM; with LOX IMVI melanoma, 4.03 µM; in the assay with M19-MEL melanoma it was 3.4 µM. Moreover, the GI50 in the assay on SK-MEL-2 melanoma was 2.53 µM; with SR leukemia, 2.54 µM; in the assay with SW-620 colon, 1.81 µM; in the assay on UACC-62 melanoma it was 5.17 µM. Further, the TGI in the assay with ACHN renal is 17.6 µM; in the assay on CCRF-CEM leukemia, 17.3 µM; in the assay with EKVX NSCLC it was 38.2 µM; in the assay on HOP-92 NSCLC, 4.79 µM; in the assay on LOX IMVI melanoma, 15.2 µM; with M19-MEL melanoma, 11.9 µM. Also, the TGI amounted to 8.06 µM with SK-MEL-2 melanoma, 9.48 µM in the assay with SR leukemia, 3.28 µM in the assay on SW-620 colon and 29.2 µM in the assay on UACC-62 melanoma.

Consider `CCOC(=O)CP(=S)(S)c1ccccc1` (stereo not given), for which the TGI in the assay with ACHN renal, with CCRF-CEM leukemia, with EKVX NSCLC, in the assay on HOP-92 NSCLC, in the assay on LOX IMVI melanoma and with M19-MEL melanoma was greater than 100 µM each time. In addition, the TGI with SK-MEL-2 melanoma, in the assay with SR leukemia, in the assay on SW-620 colon and in the assay with UACC-62 melanoma was greater than 100 µM each time.

For the molecule `O=C1CCCCCCCCCCOC(=O)CCCCCCCCCCO1`, the TGI in the assay on ACHN renal, in the assay on CCRF-CEM leukemia, in the assay on EKVX NSCLC, in the assay on HOP-92 NSCLC, with LOX IMVI melanoma and with M19-MEL melanoma was greater than 100 µM throughout. In addition, the TGI in the assay on SK-MEL-2 melanoma, in the assay on SR leukemia, with SW-620 colon and with UACC-62 melanoma was greater than 100 µM each time.

Regarding `O=C1NC(Cc2ccccc2)C(=O)N2CCCC12` (stereo not given), the TGI with ACHN renal, in the assay with CCRF-CEM leukemia, with EKVX NSCLC, in the assay with HOP-92 NSCLC, in the assay with LOX IMVI melanoma and with M19-MEL melanoma was greater than 100 µM each time. For the same molecule, the TGI with SK-MEL-2 melanoma, in the assay on SR leukemia, in the assay on SW-620 colon and in the assay on UACC-62 melanoma was greater than 100 µM each time.

Regarding `COC(=O)C1=Cc2cn(S(=O)(=O)c3ccc(C)cc3)c3cccc(c23)C(C=C(C)C)N1C(C)=O` (stereo not given), the TGI is greater than 100 µM in the assay with ACHN renal; 77.4 µM in the assay with CCRF-CEM leukemia; greater than 100 µM with EKVX NSCLC; greater than 100 µM with HOP-92 NSCLC; greater than 100 µM in the assay on LOX IMVI melanoma; greater than 100 µM with M19-MEL melanoma. Besides, the TGI in the assay on SK-MEL-2 melanoma was 29.5 µM; with SR leukemia it was greater than 100 µM; in the assay on SW-620 colon it was greater than 100 µM; in the assay on UACC-62 melanoma it was greater than 100 µM.

As for `Cc1ccc(S(=O)(=O)OC2CSSCC2OS(=O)(=O)c2ccc(C)cc2)cc1` (stereo not given), the TGI in the assay with ACHN renal worked out at 28.9 µM; in the assay on CCRF-CEM leukemia, 28.3 µM; with EKVX NSCLC, 50 µM; in the assay with HOP-92 NSCLC, 23.7 µM; in the assay with LOX IMVI melanoma, 28.5 µM; in the assay with M19-MEL melanoma it was 26.3 µM. For the same molecule, the TGI with SK-MEL-2 melanoma is 29.1 µM; with SR leukemia, 38.8 µM; in the assay with SW-620 colon, 29.6 µM; in the assay on UACC-62 melanoma, 24.6 µM.

Regarding `COc1cc(CC2C(=O)OCC2[C@@H](OC(C)=O)c2ccc3c(c2)OCO3)c(Br)c(OC)c1OC` (stereo not given in full), the TGI with ACHN renal is greater than 100 µM; in the assay on CCRF-CEM leukemia, greater than 100 µM; with EKVX NSCLC it was greater than 100 µM; in the assay with HOP-92 NSCLC, 92.7 µM; with LOX IMVI melanoma, greater than 100 µM; with M19-MEL melanoma it was greater than 100 µM. For the same molecule, the TGI in the assay on SK-MEL-2 melanoma, with SR leukemia, in the assay with SW-620 colon and in the assay with UACC-62 melanoma was greater than 100 µM in each case.

In the case of `C=CNC(=S)n1nc(-c2ccccc2NC(=O)C(F)(F)F)c(=O)n(C(=S)NC=C)c1=S`, the TGI in the assay with ACHN renal is greater than 100 µM; with CCRF-CEM leukemia, greater than 100 µM; in the assay with EKVX NSCLC, 69.3 µM; in the assay with HOP-92 NSCLC, 36.5 µM; in the assay with LOX IMVI melanoma, greater than 100 µM; in the assay with M19-MEL melanoma it was greater than 100 µM. Moreover, the TGI is greater than 100 µM in the assay with SK-MEL-2 melanoma, 73.7 µM in the assay with SR leukemia, greater than 100 µM with SW-620 colon and greater than 100 µM with UACC-62 melanoma.

In the case of `N/C(=N/N=C/c1cccc(F)c1)NO`, the TGI with ACHN renal was greater than 100 µM; with CCRF-CEM leukemia, greater than 100 µM; in the assay on EKVX NSCLC, greater than 100 µM; in the assay on HOP-92 NSCLC, greater than 100 µM; with LOX IMVI melanoma it was 97.7 µM; in the assay with M19-MEL melanoma, greater than 100 µM. In addition, the TGI is greater than 100 µM in the assay with SK-MEL-2 melanoma, greater than 100 µM in the assay with SR leukemia, greater than 100 µM with SW-620 colon and 41 µM in the assay with UACC-62 melanoma.
